One assay concerns the target VBC complex (Homo sapiens, UniProt P40337). Briefly: Isothermal titration calorimetry (ITC) of VHL ligands against VBC. It counts as binding. The settings on record: FIG. 3. The protocol:
ITC Data on the Binding of VHL Ligands 14b and 14d
Titrations were performed on an ITC200 micro-calorimeter (GE Healthcare). Compounds 14b and 14d were diluted from a DMSO stock solution to 0.6 mM in a 20 mM HEPES, 150 mM NaCl, 1 mM TCEP (pH 7) buffer. The compound was titrated against 60 μM VBC complex, equilibrated in the same buffer. Total amount of DMSO in the buffer was 3%. The data were fitted to a single binding site model to obtain the stoichiometry n, the dissociation constant Kd and the enthalpy of binding ΔH using the Microcal LLC ITC200 Origin software provided by the manufacturer.
In general terms: Isothermal titration calorimetry measures the heat released or taken up as one component is titrated into another.

The target of another assay is VHL (Homo sapiens, UniProt P40337). The conditions noted are these: as reported in Galdeano et al. 2014 and Zengerle et al. 2015; cited from earlier work.
Sequence of VHL (P40337 54-213 limits assumed): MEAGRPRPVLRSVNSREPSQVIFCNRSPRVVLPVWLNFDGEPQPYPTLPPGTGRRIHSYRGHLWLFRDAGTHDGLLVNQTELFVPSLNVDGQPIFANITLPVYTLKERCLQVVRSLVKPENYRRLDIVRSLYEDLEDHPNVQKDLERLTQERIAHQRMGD
Sequence of VHL (Q15370 1-104 partner limits assumed): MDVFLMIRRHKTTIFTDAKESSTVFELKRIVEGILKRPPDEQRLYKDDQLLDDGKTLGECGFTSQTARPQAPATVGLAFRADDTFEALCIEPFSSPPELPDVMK
Sequence of VHL (Q15369 17-112 partner limits assumed): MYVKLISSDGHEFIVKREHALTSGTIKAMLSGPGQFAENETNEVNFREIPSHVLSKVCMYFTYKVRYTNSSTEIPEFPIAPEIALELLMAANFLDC
Another assay deals with BRD4. The settings on record: Zengerle et al. 2015; cited from earlier work.

Sequence of VBC complex (P40337 54-213 limits assumed): as the sequence (P40337 54-213 limits assumed) above
Sequence of VBC complex (Q15370 1-104 partner limits assumed): as the sequence (Q15370 1-104 partner limits assumed) above
Sequence of VBC complex (Q15369 17-112 partner limits assumed): as the sequence (Q15369 17-112 partner limits assumed) above

Broadly, the Kd is the concentration at which binding is half-saturated. At VBC complex, `CC(=O)N[C@H](C(=O)N1C[C@H](O)[C@H](F)[C@H]1C(=O)NCc1ccc(-c2scnc2C)cc1)C(C)(C)C` [Compound 14b] registered a Kd of 235 nM, a ΔH of -6.566 kcal/mol and a ΔS of 8.30 cal/mol/deg.

On VBC complex, `CC(=O)N[C@H](C(=O)N1C[C@H](O)[C@@H](F)[C@H]1C(=O)NCc1ccc(-c2scnc2C)cc1)C(C)(C)C` [Compound 14d] gave a Kd of 235 nM, a ΔH of -6.566 kcal/mol and a ΔS of 8.30 cal/mol/deg.

On to `Cc1ncsc1-c1ccc(CNC(=O)[C@@H]2C[C@@H](O)CN2C(=O)[C@@H](NC(=O)COCCOCCOCCNC(=O)C[C@@H]2N=C(c3ccc(Cl)cc3)c3c(sc(C)c3C)-n3c(C)nnc32)C(C)(C)C)cc1` [MZ1, (2S,4R)-1-((S)-2-(tert-butyl)-17-((S)-4-(4-chlorophenyl)-2,3,9-trimethyl-6H-thieno[3,2-f][1,2,4]triazolo[4,3-a][1,4]diazepin-6-yl)-4,16-dioxo-6,9,12-trioxa-3,15-diazaheptadecanoyl)-4-hydroxy-N-(4-(4-methylthiazol-5-yl)benzyl)pyrrolidine-2-carboxamide], for which the “binding to VHL” value on VHL is listed as “found to bind VHL”. Besides, the “removal of BRD4 over BRD2 and BRD3” value in the assay with BRD4 was “potently and rapidly induce reversible, long-lasting and unexpectedly selective removal of BRD4 over BRD2 and BRD3”.

Regarding `Cc1ncsc1-c1ccc(CNC(=O)[C@@H]2C[C@H](O)CN2C(=O)[C@@H](NC(=O)COCCOCCOCCNC(=O)C[C@@H]2N=C(c3ccc(Cl)cc3)c3c(sc(C)c3C)-n3c(C)nnc32)C(C)(C)C)cc1` [cisMZ1, (2S,4S)-1-((S)-2-(tert-butyl)-17-((S)-4-(4-chlorophenyl)-2,3,9-trimethyl-6H-thieno[3,2-f][1,2,4]triazolo[4,3-a][1,4]diazepin-6-yl)-4,16-dioxo-6,9,12-trioxa-3,15-diazaheptadecanoyl)-4-hydroxy-N-(4-(4-methylthiazol-5-yl)benzyl)pyrrolidine-2-carboxamide], the “binding to VHL” value at VHL was “did not exhibit any measureable binding affinity for VHL”.

The values are drawn from patent US11234988B2, “Fluorohydroxyproline derivatives useful in the preparation of proteolysis targeted chimeras” (UNIVERSITY OF DUNDEE, priority 2016, dated 2022).
